The text below walks through data of PMC6352943, “Novel pyrazolo[3,4-d]pyrimidines: design, synthesis, anticancer activity, dual EGFR/ErbB2 receptor tyrosine kinases inhibitory activity, effects on cell cycle profile and caspase-3-mediated apoptosis” (Journal of Enzyme Inhibition and Medicinal Chemistry, 2019).

In general, inhibition refers to the relative decrease from the control value, in per cent.

Values joined by “and” are separate entries in the source; they are usually repeats but may differ in a detail not shown here. Equal entries are not always repeated.

One test has as its system UACC-62. The experiment in a line: NCI 60 cell line single dose screen (SRB). It counts as cell-based. As to conditions: Homo sapiens; UACC-62 (melanoma), single dose 10^−5 M, 48 h; read-out: Growth inhibition percentage. An outline of the steps:
(§1)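 Cells were plated and grown 24 h at 37 °C, 5% CO2 before compound addition from DMSO stock, then exposed 48 h. Adherent cells were fixed with cold TCA (final 10%) and suspension cells with 16% TCA. SRB-stained protein was read at 515 nm and percent growth was calculated against time-zero and untreated plates.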

Another test relates to CAKI-1. The experiment in a line: NCI 60 cell line single dose screen (SRB). It counts as cell-based. Conditions: Homo sapiens; CAKI-1 (renal cancer), single dose 10^−5 M, 48 h; read-out: Growth inhibition percentage. Put shortly:
as §1

The test system of a further test is NCI-H460 (EGFR-WT). The experiment in a line: MTT cell viability assay. It counts as cell-based, human. Here is the method:
All of the other chemicals and reagents were from Sigma, or Invitrogen.
Measure the background absorbance of multiwell plates at 690 nm and subtract from the 570 nm measurement. […] Each experiment was carried out in triplicate.
(Tetrazolium assays rely on reduction of a dye to a coloured formazan, in cell work by metabolically active cells.)

In the next test the target is T1, ErbB2 (Homo sapiens, UniProt P04626).
T1 construct: purchased
The experiment in a line: ErbB2 kinase inhibition (HTScan HER2/ErbB2 Kinase Assay Kit). As to conditions: mean ± SD of three experiments; read-out: IC50 for inhibitory activity against ErbB2 enzyme. It counts as biochemical.

T1 sequence (P04626 23-1255): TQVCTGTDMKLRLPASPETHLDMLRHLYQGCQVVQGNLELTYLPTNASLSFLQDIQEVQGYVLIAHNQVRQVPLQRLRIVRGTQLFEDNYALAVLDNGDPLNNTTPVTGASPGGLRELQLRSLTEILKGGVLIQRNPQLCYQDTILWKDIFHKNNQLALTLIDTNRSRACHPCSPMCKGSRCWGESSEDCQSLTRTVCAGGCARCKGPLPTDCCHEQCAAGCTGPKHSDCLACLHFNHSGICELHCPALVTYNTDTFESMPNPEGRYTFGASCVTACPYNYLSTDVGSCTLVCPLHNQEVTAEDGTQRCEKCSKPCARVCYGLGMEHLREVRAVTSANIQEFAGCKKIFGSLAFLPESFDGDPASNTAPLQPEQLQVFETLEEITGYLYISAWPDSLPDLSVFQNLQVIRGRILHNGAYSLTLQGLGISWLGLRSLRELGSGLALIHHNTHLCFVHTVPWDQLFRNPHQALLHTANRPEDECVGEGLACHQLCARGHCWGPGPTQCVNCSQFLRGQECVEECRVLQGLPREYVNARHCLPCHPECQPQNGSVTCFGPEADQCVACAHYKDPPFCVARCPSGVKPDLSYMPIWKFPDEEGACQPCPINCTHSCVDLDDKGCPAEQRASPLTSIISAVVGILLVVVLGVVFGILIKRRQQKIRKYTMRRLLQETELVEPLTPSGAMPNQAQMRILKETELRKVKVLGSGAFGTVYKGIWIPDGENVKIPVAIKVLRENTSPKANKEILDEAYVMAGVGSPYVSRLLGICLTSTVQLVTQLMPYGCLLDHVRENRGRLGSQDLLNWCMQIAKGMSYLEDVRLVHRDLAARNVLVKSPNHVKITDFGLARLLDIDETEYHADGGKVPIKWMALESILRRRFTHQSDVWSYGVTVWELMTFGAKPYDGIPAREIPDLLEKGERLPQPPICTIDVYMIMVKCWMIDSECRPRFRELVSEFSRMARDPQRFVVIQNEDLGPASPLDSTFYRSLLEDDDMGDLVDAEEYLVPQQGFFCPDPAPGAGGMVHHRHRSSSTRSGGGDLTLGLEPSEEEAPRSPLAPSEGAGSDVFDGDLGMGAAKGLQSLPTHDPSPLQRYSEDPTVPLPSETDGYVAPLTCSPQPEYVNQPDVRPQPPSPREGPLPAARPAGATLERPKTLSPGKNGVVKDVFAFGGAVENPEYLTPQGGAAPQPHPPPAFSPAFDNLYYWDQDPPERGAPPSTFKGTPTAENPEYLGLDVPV
Description for ErbB2: In brief, add 10 μL of 10 mM ATP to 1.25 ml of 6 μM substrate peptide. Dilute the mixture with dH20 to 2.5 ml. Transfer enzyme from −80 °C to ice. Allow enzyme to thaw on ice. Micro-centrifuge briefly at 4 °C. Return immediately to ice. […] Transfer 1.2 ml of DTT/Kinase buffer to each enzyme. […] Add 25 μL of ATP/substrate cocktail to 25 μL/well pre-incubated reaction cocktail/compound. Incubate reaction plate at room temperature for 30 min. Add 50 μL/well stop buffer to stop the reaction. Transfer 25 μL of each reaction and 75 μL dH2O/well to a 96-well streptavidin coated, plate and incubate at room temperature for 60 min. Wash three times with 200 μL/well phosphate-buffered saline (PBS). […] Add 100 μL/well primary antibody. Incubate at room temperature for 60 min and wash three times. Prepare appropriate dilution of horseradish peroxidase (HRP) labelled secondary antibody in PBS with 1% BSA. Add 100 μL/well secondary antibody solution. Incubate at room temperature for 30 min and wash five times. Add 100 μL/well 3,3′,5,5′-tetramethylbenzidine (TMB) substrate. Incubate at room temperature for 15 min. Add 100 μL/well of stop solution. Mix well and read the absorbance at 450 nm with a microtitre plate reader.

As to `Cc1nn(-c2ccc(F)cc2)c2ncnc(Cl)c12` [Compound 6, 4-Chloro-1–(4-fluorophenyl)-3-methyl-1H-pyrazolo[3,4-d]pyrimidine], the inhibition at 10 µM in the test with UACC-62 came to 12.6%; with CAKI-1, 1.02%.
Consider `Cc1nn(-c2ccc(F)cc2)c2ncnc(Nc3ccc(F)c(Cl)c3)c12` [Compound 7d, N-(3-Chloro-4-fluorophenyl)-1–(4-fluorophenyl)-3-methyl-1H-pyrazolo[3,4-d] pyrimidin-4-amine], for which the IC50 in the test with NCI-H460 (EGFR-WT) (Homo sapiens, NCI-H460 (EGFR-WT) lung cancer, MTT, 48 h, mean ± SD of three experiments, read-out: IC50 (concentration required for 50% inhibition of cell viability)) was 18700 ± 710 nM; on ErbB2 it was 250 nM and 254 nM. Further, the “Potency relative to Erlotinib (fold more potent)” value in the test on NCI-H460 (EGFR-WT) (NCI-H460 EGFR-WT, from IC50 values) was ~3.5 fold.
